This is an account of results in ChEMBL document CHEMBL1201862, “PubChem BioAssay data set” (2004).

Calls of active or inactive are those of the source. A value given as a limit tells only on which side of the number the result lay.

The target of assay [1] is T1, Streptokinase A (Streptococcus pyogenes serotype M1, UniProt P10520).
T1 sequence (P10520 whole entry): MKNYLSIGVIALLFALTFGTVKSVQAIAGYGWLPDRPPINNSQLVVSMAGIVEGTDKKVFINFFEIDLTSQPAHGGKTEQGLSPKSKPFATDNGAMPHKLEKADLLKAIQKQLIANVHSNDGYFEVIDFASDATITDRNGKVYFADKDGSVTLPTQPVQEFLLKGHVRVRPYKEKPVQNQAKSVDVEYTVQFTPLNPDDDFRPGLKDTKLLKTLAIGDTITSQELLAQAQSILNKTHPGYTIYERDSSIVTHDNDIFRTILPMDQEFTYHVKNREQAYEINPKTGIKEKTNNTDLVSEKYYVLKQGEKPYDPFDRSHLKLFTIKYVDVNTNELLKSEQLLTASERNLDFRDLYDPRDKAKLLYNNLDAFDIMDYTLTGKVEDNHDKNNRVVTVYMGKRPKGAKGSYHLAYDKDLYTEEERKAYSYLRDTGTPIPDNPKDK
The assay can be described thus: S. pyogenes streptokinase expression inhibitors, potency, dose response, plasminogen activation absorbance, OD405 (AID 1914).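 Note: secreted streptokinase activity via plasminogen activation per viability signal from cell pellet.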 The class given is functional, Streptococcus pyogenes M1 GAS.

The subject of assay [2] is Streptococcus. Put plainly: Luminescence Microorganism-Based Dose Response Follow up to Identify Compounds Cytotoxic to Streptococcus. [Related pubchem assays: 1677 (Project Summary), 1915, 1914, 1902 (Retest at Dose), 1900 (Counter Screen), 1662 (Primary HTS)]. The class given is functional, organism-based.
Assay [3] has as its system Streptococcus. Put plainly: Group A Streptococcus viability loss, dose response, counter-screen for streptokinase expression inhibitor project, luminescence, BacTiterGlo (AID 1915).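 Note: potency for reduction of bacterial viability or growth.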 The format is functional, organism-based. (Counterscreens check selectivity or assay interference.)
The nature of assay [4]: cytotoxicity toward NIH3T3 fibroblasts, dose response, counter-screen, cell-based, ATP luminescence, mouse fibroblasts (AID 2010).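 Note: cells exposed to compound for about 90 hours before reading.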 The format is functional.
The nature of assay [5]: inhibitors of intracellular T. cruzi replication, confirmation, NIH3T3 host cells, beta-gal luminescence (AID 2044).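 Note: intracellular parasites grown in NIH/3T3 mouse fibroblasts as host cells; luminescent beta-galactosidase reporter signal from transgenic T. cruzi replicating inside host cells; inhibitors lower the luminescence signal.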 The format is functional, cell-based.
For assay [6], the system named is Streptococcus sp. 'group A'. Put plainly: growth inhibition of control SK(-) GAS strain, dose response, counter-screen for streptokinase expression inhibitor project, luminescence, kanamycin, BacTiterGlo, confirmation (AID 1900). The format is functional, organism-based.
Assay [7] in a line: microbe, parasite or virus in culture. The format is functional. Conditions: Mycobacterium tuberculosis.
Assay [8] is described as follows: enhancers of respiration in Yfh1-depleted yeast, dose response, Friedreich's ataxia, plus single-dose screen (AID 1465).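 Note: yeast depleted of Yfh1p frataxin homolog grown on glycerol needing respiration; WST-1 tetrazolium dye reduction as measure of cellular dehydrogenase metabolic activity.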 The class given is functional.
The nature of assay [9]: polyadenylation inhibitors in yeast reporter, dose response, luminescence, S. cerevisiae SKY197-pL101 (AID 2525). The format is functional, cell-based.
Assay [10] can be described thus: Luminescence Cell-Based Dose Confirmation HTS to Identify Inhibitors of Polyadenylation. The class given is functional.
Assay [11] relates to HEK293. Put plainly: Fluorescence-based counterscreen for potentiators or agonists of NPY-Y1: cell-based high-throughput dose response assay for inhibitors of cyclic nucleotide gated ion channel (CNGC) activity. In this assay, the parental HEK293 cell line transfected with a cyclic-nucleotide gated ion channel (CNGC)-based cAMP sensor is used to measure inhibition of isoproterenol-induced CNGC …. Conditions: Homo sapiens. The format is functional.

The target in assay [12] is T2, Neuropeptide Y receptor type 2 (Homo sapiens, UniProt P49146).
T2 sequence (P49146 whole entry): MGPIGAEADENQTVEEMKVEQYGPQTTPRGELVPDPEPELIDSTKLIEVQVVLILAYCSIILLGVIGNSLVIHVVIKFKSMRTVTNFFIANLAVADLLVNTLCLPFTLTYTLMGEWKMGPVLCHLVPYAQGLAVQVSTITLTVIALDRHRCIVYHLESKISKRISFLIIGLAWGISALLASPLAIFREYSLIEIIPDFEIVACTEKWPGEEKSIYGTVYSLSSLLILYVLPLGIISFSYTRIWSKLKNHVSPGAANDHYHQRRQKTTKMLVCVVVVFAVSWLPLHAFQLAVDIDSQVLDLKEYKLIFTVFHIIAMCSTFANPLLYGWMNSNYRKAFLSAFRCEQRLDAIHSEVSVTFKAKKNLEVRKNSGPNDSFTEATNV
The assay can be described thus: Fluorescence-based counterscreen for agonists of NPY-Y1: cell-based high-throughput dose response assay for agonists of NPY-Y2. The format is functional.

For assay [13], the system named is Vero. The assay can be described thus: cells. The format is functional. Particulars: Chlorocebus sabaeus.
Assay [14] relates to INS1. The assay can be described thus: beta cell apoptosis inhibitors, cytokine rescue, dose response, luminescence, retest (AID 449756).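 Note: cell death triggered by IL-1 beta plus TNF-alpha plus IFN-gamma mixture; protective hits raise ATP signal compared with cytokine alone wells.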 Particulars: Rattus norvegicus. The class given is functional, cell-based.
Assay [15] has as its target Beta-galactosidase (Escherichia coli, UniProt Q8VNN2). The assay can be described thus: Dose response counterscreen for EBI2 assay utilizing the enzyme, b-galactosidase. The class given is functional.
Assay [16] addresses T3, Neuropeptide Y receptor type 1 (Homo sapiens, UniProt P25929).
T3 sequence (P25929 whole entry): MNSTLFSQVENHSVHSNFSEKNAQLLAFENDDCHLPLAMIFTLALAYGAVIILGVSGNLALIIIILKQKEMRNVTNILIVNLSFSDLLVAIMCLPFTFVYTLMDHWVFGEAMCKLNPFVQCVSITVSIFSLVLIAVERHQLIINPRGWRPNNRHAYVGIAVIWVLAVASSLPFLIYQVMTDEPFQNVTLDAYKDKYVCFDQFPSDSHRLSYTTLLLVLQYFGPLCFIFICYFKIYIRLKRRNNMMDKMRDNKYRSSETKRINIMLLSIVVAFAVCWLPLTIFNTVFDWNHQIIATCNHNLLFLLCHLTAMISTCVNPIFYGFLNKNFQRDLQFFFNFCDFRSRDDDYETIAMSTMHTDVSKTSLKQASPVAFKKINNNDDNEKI
The assay can be described thus: Fluorescence-based dose response cell-based high-throughput screening assay for agonists of NPY-Y1. [Related pubchem assays: 1697 (Screening assay (NPY-Y1 agonists).), 1359 (Screening assay (NPY-Y2 potentiators or agonists).), 1304 (Screening assay (NPY-Y1 potentiators or agonists).), 1704 (Screening assay (CNGC inhibitors).), 1791 (Summary AID.)]. The format is functional.

Assay [17] is described as follows: Luminescence Cell-Based Dose Retest to Confirm Inhibitors of Cancer Stem Cells. [Related pubchem assays (depositor defined):AID2717, AID2721]. The class given is functional. Particulars: Homo sapiens.

Chain of Beta-galactosidase (Q8VNN2 whole entry): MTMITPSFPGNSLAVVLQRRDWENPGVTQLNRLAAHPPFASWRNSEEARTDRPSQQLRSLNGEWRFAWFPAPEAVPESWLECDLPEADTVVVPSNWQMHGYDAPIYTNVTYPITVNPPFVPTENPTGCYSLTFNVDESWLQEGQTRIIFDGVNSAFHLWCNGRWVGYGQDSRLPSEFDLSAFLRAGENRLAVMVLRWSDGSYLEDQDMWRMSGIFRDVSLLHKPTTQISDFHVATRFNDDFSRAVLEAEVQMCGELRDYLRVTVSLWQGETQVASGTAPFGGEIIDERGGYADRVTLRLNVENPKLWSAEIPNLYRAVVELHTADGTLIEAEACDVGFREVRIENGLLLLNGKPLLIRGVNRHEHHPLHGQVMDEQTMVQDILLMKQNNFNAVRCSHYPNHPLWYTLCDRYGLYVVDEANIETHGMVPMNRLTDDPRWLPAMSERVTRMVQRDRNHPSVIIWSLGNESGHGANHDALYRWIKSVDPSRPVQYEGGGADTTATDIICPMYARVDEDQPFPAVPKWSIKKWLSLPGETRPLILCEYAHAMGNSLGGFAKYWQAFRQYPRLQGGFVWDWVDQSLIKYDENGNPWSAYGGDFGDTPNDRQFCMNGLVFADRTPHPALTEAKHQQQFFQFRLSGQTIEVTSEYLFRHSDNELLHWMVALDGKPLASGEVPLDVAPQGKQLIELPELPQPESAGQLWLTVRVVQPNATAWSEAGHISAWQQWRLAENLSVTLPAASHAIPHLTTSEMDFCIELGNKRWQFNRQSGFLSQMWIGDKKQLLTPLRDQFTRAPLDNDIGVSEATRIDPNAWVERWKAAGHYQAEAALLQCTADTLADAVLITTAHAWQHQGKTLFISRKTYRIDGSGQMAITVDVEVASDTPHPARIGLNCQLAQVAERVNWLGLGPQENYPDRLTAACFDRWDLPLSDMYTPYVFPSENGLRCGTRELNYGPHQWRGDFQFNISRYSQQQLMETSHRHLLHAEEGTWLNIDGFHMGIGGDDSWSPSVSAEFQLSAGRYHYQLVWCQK

In general, EC50 refers to the concentration needed to bring the measured effect to its halfway point. Turning to `Cc1cc(C)c2nc(-c3ccncc3)cc(C(=O)N3CCN(Cc4ccccc4Cl)CC3)c2c1`, the EC50 is 10.3 µM (active) in assay [1]; 9.94 µM (active) in assay [2]; > 150 µM (not active) in assay [3]; > 60 µM (not active) in assay [4]; 2.35 µM (active) in [5]; 3.71 µM (active) in assay [6]. In addition, in assay [7], the CC50 is > 40 µM (active).

For `CC1(OC(=O)C2CCCC2)C(=O)C=C2C=C(c3ccsc3)N(Cc3ccco3)C=C2C1=O` (configuration not stated), the EC50 in assay [8] was > 100 µM (active).

On to `CC(=O)c1ccc(Sc2ccccc2)c([N+](=O)[O-])c1`, for which the values for the EC50 in assay [9] and in assay [10] were 2.88 µM (active) and 11.4 µM (active), respectively.

The IC50 is the concentration at which inhibition is half-maximal. A word on the AC50: it is the midpoint of the concentration-response curve, whichever way the signal moves. In the case of `O=C(c1cc(-c2cccc(O)c2)on1)N1CCN(C(c2ccccc2)c2ccccc2)CC1`, the IC50 in assay [11] is > 35.4 µM (not active); in assay [15], 151 µM (inactive). The EC50 in [12] and in [16] was > 35.4 µM (not active) throughout. Moreover, in assay [13], the CC50 is 15.4 µM (active). Moreover, the AC50 in assay [14] was 9.7 µM (active); in assay [17], 1.58 µM (active).
